In this assay the test system is MM.1S cells. The assay can be described thus: Inhibitory effect on the proliferation of MM.1S, MTS cell viability test. Format: cell-based. The conditions noted are these: Homo sapiens, MM1.S, 168 h, multiple myeloma MM.1S cells, 7 days incubation, read-out: Tumor cell inhibitory activity. A digest of the protocol: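 MM.1S cells (20,000/well, RPMI 1640 with 10% FBS) exposed to 5-fold compound dilutions at 0.2% DMSO for 7 days at 37° C, 5% CO2. MTS added for 3-4 h; OD490-OD690 gave inhibition versus DMSO, IC50 fitted, mean of three experiments.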
(In general: Tetrazolium assays rely on reduction of a dye to a coloured formazan, in cell work by metabolically active cells.)

SMILES strings stand for the structures. pIC50: −log10 of the molar value.

Take `O=C1CCC(N2Cc3c(CCCCCN4CCCCc5ccccc54)cccc3C2=O)C(=O)N1` (stereo not shown) [Example 111, 3-(1-oxo-4-(5-(2,3,4,5-tetrahydro-TH-benzo[b]azepine-1-)pentyl)isoindoline-2-)piperidine-2,6-dione]: the pIC50 was 6.00 to 7.00.

`O=C1CCC(N2Cc3c(CCCCCN4CCc5cc(Br)ccc54)cccc3C2=O)C(=O)N1` (stereo not shown) [Example 112]: the pIC50 was more than 7.00.

For `O=C1CCC(N2Cc3c(CCCCCN4CCc5ccccc5C4)cccc3C2=O)C(=O)N1` (stereo not shown) [Example 113, 3-(4-(5-(3,4-dihydroisoquinoline-2(1H)-)pentyl)-1-oxoisoindoline-2-)piperidine-2,6-dione], the pIC50 was 6.00 to 7.00.

As for `O=C1CCC(N2Cc3c(CCCCCN4CCCc5cc(Cl)ccc54)cccc3C2=O)C(=O)N1` (stereo not shown) [Example 115], the pIC50 is 6.00 to 7.00.

On to `O=C1CCC(N2Cc3c(OCCCC(=O)N4CCc5ccccc54)cccc3C2=O)C(=O)N1` (stereo not shown) [Example 116, 3-(4-(4-(indoline-1-)-4-oxobutoxy)-1-oxoisoindoline-2-)piperidine-2,6-dione], for which the pIC50 was more than 7.00.

Turning to `O=C1CCC(N2Cc3c(OCCCC(=O)N4CCCc5ccccc54)cccc3C2=O)C(=O)N1` (stereo not shown) [Example 117, 3-(4-(4-(3,4-dihydroquinoline-1(2H)-)-4-oxobutoxy)-1-oxoisoindoline-2-)piperidine-2,6-dione], the pIC50 is 6.00 to 7.00.

Turning to `O=C1CCC(N2Cc3c(OCCCCC(=O)N4CCc5ccccc54)cccc3C2=O)C(=O)N1` (stereo not shown) [Example 118, 3-(4-((5-(indoline-1-)-5-oxopentyl)oxy)-1-oxoisoindoline-2-)piperidine-2,6-dione], the pIC50 is more than 7.00.

On to `O=C1CCC(N2Cc3c(OCCCCC(=O)N4CCCc5ccccc54)cccc3C2=O)C(=O)N1` (stereo not shown) [Example 119, 3-(4-((5-(3,4-dihydroquinoline-1(2H)-)-5-oxopentyl)oxy)-1-oxoisoindoline-2-)piperidine-2,6-dione], for which the pIC50 is more than 7.00.

On to `O=C1CCC(N2Cc3c(CCCCCCN4CCC5(CC4)OCc4ccc(Cl)cc45)cccc3C2=O)C(=O)N1` (stereo not shown) [Example 120, 3-(4-(6-(6-chloro-3H-spiro[isobenzofuran-1,4′-piperidine]-1′-)hexyl)-1-oxoisoindoline-2-)piperidine-2,6-dione], for which the pIC50 was more than 7.00.

For `O=C1CCC(N2Cc3c(CCCCCN4CCC5(CC4)C(=O)Nc4ccccc45)cccc3C2=O)C(=O)N1` (stereo not shown) [Example 121, 3-(1-oxo-4-(5-(2-oxospiro[indoline-3,4′-piperidine]-1′-)pentyl)indoline-2-)piperidine-2,6-dione], the pIC50 is more than 7.00.

With `O=C1CCC(N2Cc3c(CCCCCN4CCC5(CC4)OCc4ccccc45)cccc3C2=O)C(=O)N1` (stereo not shown) [Example 123, 3-(4-(5-(3H-spiro[isobenzofuran-1,4′-piperidine]-1′-)pentyl)-1-oxoisoindoline-2-)piperidine-2,6-dione], the pIC50 is more than 7.00.

Take `O=C1CCC(N2Cc3c(OCCCCN4CCC5(CC4)OCc4ccc(Cl)cc45)cccc3C2=O)C(=O)N1` (stereo not shown) [Example 124, 3-(4-(4-(6-chloro-3H-spiro[isobenzofuran-1,4′-piperidine]-1′-)butoxy)-1-oxoisoindoline-2-)piperidine-2,6-dione]: the pIC50 is more than 7.00.

Consider `O=C1CCC(N2Cc3c(CCCCCN4CCC5(CC4)OC(=O)Nc4ccccc45)cccc3C2=O)C(=O)N1` (stereo not shown) [Example 125, 3-(1-oxo-4-(5-(2-oxo-1,2-dihydrospiro[benzo[d][1,3]oxazine-4,4′-piperidine]-1′-)pentyl)isoindoline-2-)piperidine-2,6-dione], for which the pIC50 was 6.00 to 7.00.

Take `O=C1CCC(N2Cc3c(OCCCCN4CCC5(CC4)OCc4ccccc45)cccc3C2=O)C(=O)N1` (stereo not shown) [Example 126, 3-(4-(4-(2H-spiro[benzofuran-3,4′-piperidine]-1′-)butoxy)-1-oxoisoindoline-2-)piperidine-2,6-dione]: the pIC50 was more than 7.00.

Consider `O=C1CCC(N2Cc3c(CCCCCN4CCC5(CC4)OCc4ccc(Cl)cc45)cccc3C2=O)C(=O)N1` (stereo not shown) [Example 127], for which the pIC50 is 6.00 to 7.00.

Take `O=C1CCC(N2Cc3c(OCCCCN4CCC5(CC4)OCc4ccc(F)cc45)cccc3C2=O)C(=O)N1` (stereo not shown) [Example 128, 3-(4-(4-(6-fluoro-3H-spiro[isobenzofuran-1,4′-piperidine]-1′-)butoxy)-1-oxoisoindoline-2-)piperidine-2,6-dione]: the pIC50 is more than 7.00.

With `O=C1CCC(N2Cc3c(CCCCCN4CCC5(CC4)OC(=O)c4cc(Cl)ccc45)cccc3C2=O)C(=O)N1` (stereo not shown) [Example 129, 3-(4-(5-(5-chloro-3-oxo-3H-spiro[isobenzofuran-1,4′-piperidine]-1′-)pentyl)-1-oxoisoindoline-2-)piperidine-2,6-dione], the pIC50 is 6.00 to 7.00.

`Cc1ccc2c(c1)C1(CCN(CCCCOc3cccc4c3CN(C3CCC(=O)NC3=O)C4=O)CC1)OC2` (stereo not shown) [Example 130, 3-(4-(4-(6-methyl-3H-spiro[isobenzofuran-1,4′-piperidine]-1′-)butoxy)-1-oxoisoindoline-2-)piperidine-2,6-dione]: the pIC50 was more than 7.00.

For the compound `O=C1CCC(N2Cc3c(CCCCCN4CCC5(CC4)OC(=O)Nc4ncccc45)cccc3C2=O)C(=O)N1` (stereo not shown) [Example 131, 3-(1-oxo-4-(5-(2′-oxo-1′,2′-dihydrospiro[piperidine-4,4′-pyrido[2,3-d][1,3)oxazine)-1-)pentyl)isoindoline-2-)piperidine-2,6-dione], the pIC50 is 6.00 to 7.00.

In the case of `O=C1CCC(N2Cc3c(OCCCCCN4CCC5(CC4)OCc4ccc(Cl)cc45)cccc3C2=O)C(=O)N1` (stereo not shown) [Example 132, 3-(4-((5-(6-chloro-3H-spiro[isobenzofuran-1,4-piperidine]-1-)pentyl)oxy)-1-oxoisoindoline-2-)piperidine-2,6-dione], the pIC50 is more than 7.00.

For `O=C1CCC(N2Cc3c(CCCCCN4CCC5(CC4)C(=O)Nc4ccc(Cl)cc45)cccc3C2=O)C(=O)N1` (stereo not shown) [Example 133, 3-(4-(5-(5-chloro-2-oxospiro[indoline-3,4′-piperidine]-1′-)pentyl)-1-oxoisoindoline-2-)piperidine-2,6-dione], the pIC50 was more than 7.00.

Regarding `COc1ccc2c(c1)C1(CCN(CCCCCc3cccc4c3CN(C3CCC(=O)NC3=O)C4=O)CC1)C(=O)N2` (stereo not shown) [Example 135, 3-(4-(5-(5-methoxy-2-oxospiro[indoline-3,4′-piperidine]-1′-)pentyl)-1-oxoisoindoline-2-)piperidine-2,6-dione], the pIC50 was 6.00 to 7.00.

Regarding `O=C1CCC(N2Cc3c(CCCCCN4CCC5(CC4)OCCc4ccccc45)cccc3C2=O)C(=O)N1` (stereo not shown) [Example 137, 3-(1-oxo-4-(5-(spiro[isochroman-1,4′-piperidine]-1′-)pentyl)isoindoline-2-)piperidine-2,6-dione], the pIC50 was 6.00 to 7.00.

For the compound `O=C1CCC(N2Cc3c(OCCCN4CCC5(CC4)OCc4ccc(Cl)cc45)cccc3C2=O)C(=O)N1` (stereo not shown) [Example 138, 3-(4-(3-(6-chloro-3H-spiro[isobenzofuran-1,4′-piperidine]-1′-)propoxy)-1-oxoisoindoline-2-)piperidine-2,6-dione], the pIC50 was more than 7.00.

Turning to `O=C1CCC(N2Cc3c(CCCCCN4CCC5(C4)C(=O)Nc4ccccc45)cccc3C2=O)C(=O)N1` (stereo not shown) [Example 139], the pIC50 is 6.00 to 7.00.

With `Cc1ccc2c(c1)C1(CCN(CCCOc3cccc4c3CN(C3CCC(=O)NC3=O)C4=O)CC1)OC2` (stereo not shown) [Example 140, 3-(4-(3-(6-methyl-3H-spiro[isobenzofuran-1,4′-piperidine]-1′-)propoxy)-1-oxoisoindoline-2-)piperidine-2,6-dione], the pIC50 was more than 7.00.

With `O=C1CCC(N2Cc3c(CCCCCN4CCC5(C=Cc6ccccc65)CC4)cccc3C2=O)C(=O)N1` (stereo not shown) [Example 141, 3-(1-oxo-4-(5-(spiro[indene-1,4′-piperidine]-1′-)pentyl)isoindoline-2-)piperidine-2,6-dione], the pIC50 was 6.00 to 7.00.

For `O=C1CCC(N2Cc3c(OCCCN4CCC5(CC4)OCc4ccc(F)cc45)cccc3C2=O)C(=O)N1` (stereo not shown) [Example 142, 3-(4-(3-(6-fluoro-3H-spiro[isobenzofuran-1,4′-piperidine]-1′-)propoxy)-1-oxoisoindoline-2-)piperidine-2,6-dione], the pIC50 was 6.00 to 7.00.

With `O=C1CCC(N2Cc3c(OCCCCCN4CCC5(CC4)OCc4ccc(F)cc45)cccc3C2=O)C(=O)N1` (stereo not shown) [Example 144, 3-(4-((5-(6-fluoro-3H-spiro[isobenzofuran-1,4-piperidine]-1-)pentyl)oxy)-1-oxoisoindoline-2-)piperidine-2,6-dione], the pIC50 was more than 7.00.

On to `O=C1CCC(N2Cc3c(CCCCCN4CCC5(CC4)COc4ccccc45)cccc3C2=O)C(=O)N1` (stereo not shown) [Example 145], for which the pIC50 is 6.00 to 7.00.

Take `Cc1ccc2c(c1)C1(CCN(CCCCCOc3cccc4c3CN(C3CCC(=O)NC3=O)C4=O)CC1)OC2` (stereo not shown) [Example 146, 3-(4-((5-(6-methyl-3H-spiro[isobenzofuran-1,4′-piperidine]-1′-)pentyl)oxy)-1-oxoisoindoline-2-)piperidine-2,6-dione]: the pIC50 is more than 7.00.

Take `O=C1CCC(N2Cc3c(CCCCCN4CCC5(CC4)C(=O)NCN5c4ccccc4)cccc3C2=O)C(=O)N1` (stereo not shown) [Example 147, 3-(1-oxo-4-(5-(4-oxo-1-phenyl-1,3,8-triazaspiro[4.5]decane-8-)pentyl)isoindoline-2-)piperidine-2,6-dione]: the pIC50 was 6.00 to 7.00.

`O=C1CCC(N2Cc3c(OCCCCCCN4CCC5(CC4)COc4ccccc45)cccc3C2=O)C(=O)N1` (stereo not shown) [Example 148, 3-(4-((6-(2H-spiro[benzofuran-3,4′-piperidine]-1′-)hexyl)oxy)-1-oxoisoindoline-2-)piperidine-2,6-dione]: the pIC50 was more than 7.00.

For the compound `O=C1CCC(N2Cc3c(CCCCN4CCC5(CC4)OCc4ccccc45)cccc3C2=O)C(=O)N1` (stereo not shown) [Example 149, 3-(4-(4-(3H-spiro[isobenzofuran-1,4′-piperidine]-1′-)butyl)-1-oxoisoindoline-2-)piperidine-2,6-dione], the pIC50 was 6.00 to 7.00.

Values taken from patent US12459921B2, “Isoindoline compound, preparation method, pharmaceutical composition and use thereof” (SHANGHAI INSTITUTE OF MATERIA MEDICA, CHINESE ACADEMY OF …, priority 2018, dated 2025).
